Experimental data: patent US8114589B2, “Self-addressable self-assembling microelectronic integrated systems, component devices, mechanisms, methods, and procedures for molecular biological analysis and diagnostics” (Gamida For Life B.V., priority 1996, dated 2012)
Read-outs that look alike come from different tables or passages of the source. {Amino} = amino group added with ABI Aminolink 2 reagent, used to attach Texas Red

Columns and labels:
Ras-G = test: Ras-12 single point mutation hybridization with 15-mer probes; format: binding
Excerpt: In the Ras-12 example, 15-mer point mutation specific probes were electronically hybridized to 30-mer target sequences attached to the microlocations on test devices. The polarity at the microlocations was biased negative, and the hybrids were subjected to constant current for a given time, providing a defined power level which denatures the mis-match without affecting the perfect match.
Test devices were fabricated from microcapillary tubes as described previously in the specification. Attachment sequences Ras-G and Ras-T were periodate oxidized and covalently bound to the addressed microlocations.
Ras-G microlocation were then hybridized with Ras-1, Ras-2 or Ras-3. Ras-1 is the perfect match to Ras-G. Ras-2 is a one base pair mismatch (G-A). Ras-3 is a two base pair mismatch (G-A and G-T). The G-A mis-match produces the least destabilization to the DNA duplex, and is therefore the most difficult to distinquish from the perfect match.
Conventional hybridization was first carried out and the microlocations were examined fluorescently to measure to what extent complementary sequences were hybridized. The test devices (microcapillaries) were re-mounted and electronic hybridization was then carried out. […] The procedure and results are shown below: […]

ET-10AL capture sequence = test: Electronically controlled fluorescent DNA/dye (ethidium bromide) detection; format: binding; conditions: peak ethidium bromide fluorescence after positive bias 0.05 mA, 0.03 Volt-Hours; capture ET-10AL
Method: Microcapillary test devices were prepared and hybridized as described in Example 2 and 3. Ethidium bromide (EB) was added to the buffer solution (˜0.05 mM EB final concentration) and the test devices were biased negative to concentrate EB (positively charged) at both the hybridized and un-hybridized microlocations. The test devices were observed by epifluorescece microscopy at 550 nm excitation and 600 nm emission.
The test devices were re-mounted biased positive
constant current at 0.05 mA for 0.03 Volt-Hours, to selectively remove the EB. Fluorescence at the un-hybridized microlocations diminished while the hybridized microlocations retained a very high level of EB fluorescence. The results are given below:
Fluorescent signal was measured using an ICCD imaging

[1] = test system: btrRCA5 to ATA5 capture oligonucleotide; test: Accumulation and electronic hybridization in test buffers; conditions: in words
Method: Microelectronic Chips, Permeation Layer and Instrumentation—These have been described previously with the following exception. The permeation layer employed herein has an underlayer of agarose beneath the top streptavidin-containing agarose layer (approximately one micron in total thickness). To make the underlayer, […] glyoxal agarose (2%) was spun on at 2000 rpms for 20 sec prior to the application of the streptavidin-agarose layer. In brief, the 5580 series APEX chip used for these experiments consists of a 5×5 array of […] circular microelectrodes with […] microelectrodes at each corner of the array. Chips were mounted on a micromanipulator stage and the microelectrodes activated by a power supply and appropriately controlled relay switches. Fluorescently labeled oligonucleotides on the chip were visualized using oblique illumination with two 594 nm HeNe lasers and the images were quantified using either NIH Image or IPLab Spectrum software packages.
Accumulation and Hybridization—Two biotinylated capture oligonucleotides, ATA5 and ATA4 were electronically transported and localized at adjacent microelectrodes. The solution was removed and the chip washed 3-4× in test buffer. Buffers employed in these studies are listed in Table 3 and were utilized at the listed pH values and concentrations presented.
The L-isomers of amino acids were used, unless otherwise noted. The chip was equilibrated in test buffer for 5-10 min. Then fresh buffer containing 10 nM BODIPY-Texas Red labeled RCA5 (btrRCA5), an oligonucleotide complementary to ATA5 but not ATA4 (RS paper) was applied.
The […] microelectrodes were employed as cathodes and one microelectrode within the array used as the corresponding anode. Accumulation was assessed by sourcing a 500 nA constant current to individual microelectrodes for 30 sec and monitoring the accumulation of fluorescence at the positively-biased (anode) site in the microelectrode array. Signal arising from non-fluorescent sources (ie. thermal noise, etc.) was subtracted. Experiments examining the effect of different currents upon signal accumulation were conducted in a similar fashion except that the applied current varied from 100 nA to 1 mA. […] For the comparison between conductivities of various buffers, the data is presented as fold increase over initial fluorescence to account for chip-to-chip variation as well as laser illumination variations in signal levels. For other experiments, the data is presented as attomol product versus time, after converting^2 the observed fluorescence intensity to moles of labeled oligonucleotide.
Following accumulation at one microelectrode location, the buffer was removed and fresh buffer containing btrRCA5 applied. An adjacent microelectrode was then sourced in a similar fashion. Upon completion, the buffer was removed and the chip washed 5-7× with test buffer without btrRCA5. The pair of previously targeted microelectrodes were then illuminated and the fluorescence present at each site quantified. Control experiments utilized a bodipy-Texas Red labeled oligonucleotide complementary to ATA4 to verify the integrity and concentration of the ATA4 capture oligonucleotide. Percent hybridization efficiency was calculated as follows: (complementary oligonucleotide signal−noncomplementary signal)/(signal present immediately prior to the end of the applied current)×100.

[2] = Buffer capacity, pH and conductivity of buffers used on the APEX chip; conditions: for PH: NaPO4: 20 mM adjusted to pH 7.4
[3] = test system: Reporter DNA to DNA1 or PNA1 capture; test: Hybridization of phosphodiester-linked oligonucleotides versus PNA analogues; conditions: 200 nA versus 500 nA
btrRCA5 to ATA5 [4] = test: Passive hybridization at different pHs
Excerpt: Passive Hybridization at Different pHs—Biotinylated ATA5 and ATA4 were electronically targeted to adjacent sites upon streptavidin/agarose coated microarrays. […] A parallel hybridization was done in 6×SSC. After this hybridization period, the chips were washed in 0.2×STE, 0.1% sodium dodecyl sulfate, as above and the remaining fluorescence at each site quantitated. Fluorescence values present at ATA4 sites were subtracted from adjacent ATA5 sites and the remaining fluorescence converted to attomol btrRCA5 specifically hybridized. Additional experiments repeated this methodology and also examined buffer adjusted with concentrated acetic acid (at the pI and at pH 6 and 5).

[5] = cited from earlier work; for pK1 / pK2 / pK3: Table 2
[6] = test system: target DNA to the specific capture DNA; test: DNA hybridization sensitivity on the APEX chip; conditions: normal DNA
btrRCA5 to ATA5 [7] = test: Passive hybridization versus electric field hybridization; conditions: 50 mM
Method: Passive Hybridization versus Electric Field Hybridization—ATA5 was electrically targeted to the first four columns of the microarray on streptavidin/agarose coated chips prepared as above, and ATA4 was targeted to the remaining column. For passive hybridization, either 5.0 nM or 0.5 nM btrRCA5 in 5×SSC (1×=0.15 M NaCl, 15 mM sodium citrate, pH 7.0) was applied for 1 min, then the chips were washed 6× in buffer and imaged. For the 3 min timepoint, fresh buffer containing btrRCA5 was applied and incubated for an additional 2 min to achieve 3 min cumulative incubation time. This approach was repeated for the remaining time points. […] Five sites, 4 with ATA5 previously attached and 1 with ATA4, were electronically targeted using 3.1 V total, (approximately 500 nA/site). […] In both passive and electric field mediated hybridization, the background signal present at the ATA4 sites was subtracted from the signal present at ATA5 sites.

DNA = DNA transport (accumulation) on the APEX chip; conditions: in words, same field conditions
[8] = molecular target: streptavidin/biotin DNA probe (Streptomyces avidinii, UniProt P22629); test: Streptavidin/biotin DNA probe capture affinity on the APEX chip; format: binding
Sequence of streptavidin/biotin DNA probe (P22629 25-183, species assumed): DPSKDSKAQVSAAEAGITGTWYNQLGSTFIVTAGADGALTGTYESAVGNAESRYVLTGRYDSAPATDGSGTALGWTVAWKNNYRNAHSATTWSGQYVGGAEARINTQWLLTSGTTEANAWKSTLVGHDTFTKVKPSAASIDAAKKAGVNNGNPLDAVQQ

Molecule | Normalized Signal (ET-10AL capture sequence) | conductivity [2] [μS] | PH [2] | pK1 [5] | pK2 [5] | pK3 [5] | pI [5] | transport (DNA) | SA-Biotin T12 Sensitivity [8] | other results
3′-CC-GCG-GCC-GCC-ACA-C-5′-(TR) (DNA CCGCGGCCGCCACAC; TR label, further chemistry not given here; listed 3' to 5') [Ras-1] |  |  |  |  |  |  |  |  |  | signal ratio of perfect match (Ras-G/Ras-1) to 1 bp mis-match (Ras-G/Ras-2) (Ras-G; conventional hybridization, 5×SSC 15 minutes 40° C., washes): about 10 to 1; signal ratio of perfect match (Ras-G/Ras-1) to 1 bp mis-match (Ras-G/Ras-2) (Ras-G; electronic stringency control, 0.15 mA at 150 V for 4 minutes, 20° C.): > 100 to 1
5′-Amino-CCT GCT CAT GAG TCT CTC (DNA CCTGCTCATGAGTCTCTC; DNA, 5' {Amino}, backbone not given here; further chemistry not fully specified) [ET-11AL] | >200 |  |  |  |  |  |  |  |  | 
5′-Amino-TGCGAGCTGCAGTCAGACAT (DNA TGCGAGCTGCAGTCAGACAT; DNA, 5' {Amino}, backbone not given here; further chemistry not fully specified) [ET-21A] | 1 |  |  |  |  |  |  |  |  | 
N[C@@H](Cc1c[nH]cn1)C(=O)O [Histidine] |  | 212.0 | 7.6 | pK1 - 1.8 | pK2 - 6.0 | pK3 - 9.0 | 7.47 | good transport | 3 × 10^6 | support of sequence specific electronic hybridization [1]: demonstrated specific hybridization; conductivity ([2]; hi purity): 172.0 μS; DNA:DNA hybridization [3]: only occurs well at 500 nA; PNA:DNA hybridization [3]: occurs at roughly equal efficiencies at either current; passive hybridization (btrRCA5 to ATA5 [4]; at its pI (pH 7.5), 50 mM): does not facilitate hybridization; passive hybridization (btrRCA5 to ATA5 [4]; pH 6.0 and 5.0, 50 mM): accelerated hybridization; Hybridization Sensitivity of DNA [6]: 3×10^6 targets; hybridization in the absence of an applied electric field (btrRCA5 to ATA5 [7]): No hybridization was observed; pH of the solution (200 nA): > 6; pH of the solution (500 nA): > 5; pH above the surface of the permeation layer (not told): > 5
NCCCC[C@H](N)C(=O)O [Lysine] |  | 477.0 | 9.6 | pK1 - 2.2 | pK2 - 8.9 | pK3 - 10.3 | 9.74 | fair transport | >7.5 × 10^10 | 
